Laboratory results reported in ChEMBL document CHEMBL4346707, “Synthesis and biological evaluation of pyrazolo[3,4-b]pyridine-3-yl pyrimidine derivatives as sGC stimulators for the treatment of pulmonary hypertension” (Eur J Med Chem, 2019).
Activity calls are given as the source filed them. The rule behind the calls is not given here.

Assays:
[1] = species on record: Rattus norvegicus; test: Stimulatory activity at sGC in Sprague-Dawley rat thoracic aorta assessed as inhibition of norepinephrine-induced contraction at 1 uM by JZ100 strain guages based isometric analysis relative to control; parameters: scale not given: the % may be the effect or the level left
[2] = Stimulatory activity at sGC in Sprague-Dawley rat thoracic aorta assessed as inhibition of norepinephrine-induced contraction by JZ100 strain guages based isometric analysis
[3] = test system: Heart; test: Cardioprotective activity in Langendorff perfused Sprague-Dawley rat heart assessed as reduction of coronary perfusion pressure; type: functional, tissue-based
[4] = test system: Heart; test: Cardioprotective activity in Langendorff perfused Sprague-Dawley rat heart assessed as reduction of coronary perfusion pressure at 0.01 to 3 uM relative to control; type: functional
[5] = test system: Heart; test: Cardioprotective activity in Langendorff perfused Sprague-Dawley rat heart assessed as increase in coronary artery relaxation; type: functional, tissue-based
[6] = test system: Heart; test: Potency index. ratio of EC50 of riociguat to EC50 of compound for cardioprotective activity in Langendorff perfused Sprague-Dawley rat heart assessed as increase in coronary artery relaxation; type: functional
[7] = Half life in male Beagle dog at 0.5 mg/kg, po by LC-MS/MS analysis; type: ADME, organism-based, Canis lupus familiaris; conditions: in vivo
[8] = Tmax in male Beagle dog at 0.5 mg/kg, po by LC-MS/MS analysis; type: ADME, organism-based, Canis lupus familiaris; conditions: in vivo
[9] = Cmax in male Beagle dog at 0.5 mg/kg, po by LC-MS/MS analysis; type: ADME, organism-based, Canis lupus familiaris; parameters: dose 0.5 mg/kg, route oral; conditions: in vivo
[10] = AUC (0 to infinity) in male Beagle dog at 0.5 mg/kg, po by LC-MS/MS analysis; type: ADME, organism-based, Canis lupus familiaris; parameters: dose 0.5 mg/kg, route oral, time infinity; conditions: in vivo
[11] = Apparent clearance in male Beagle dog at 0.5 mg/kg, po by LC-MS/MS analysis; type: ADME, organism-based, Canis lupus familiaris; conditions: in vivo, read-out: CL(app) (converted)
[12] = Apparent volume of distribution in male Beagle dog at 0.5 mg/kg, po by LC-MS/MS analysis; type: ADME, organism-based, Canis lupus familiaris; conditions: in vivo
[13] = Oral bioavailability (0 to infinity) in male Beagle dog at 0.5 mg/kg by LC-MS/MS analysis; type: ADME, organism-based, Canis lupus familiaris; conditions: in vivo
[14] = Half life in male Beagle dog at 1.5 mg/kg, po by LC-MS/MS analysis; type: ADME, organism-based, Canis lupus familiaris; conditions: in vivo
[15] = Tmax in male Beagle dog at 1.5 mg/kg, po by LC-MS/MS analysis; type: ADME, organism-based, Canis lupus familiaris; conditions: in vivo
[16] = Cmax in male Beagle dog at 1.5 mg/kg, po by LC-MS/MS analysis; type: ADME, organism-based, Canis lupus familiaris; parameters: dose 1.5 mg/kg, route oral; conditions: in vivo
[17] = AUC (0 to infinity) in male Beagle dog at 1.5 mg/kg, po by LC-MS/MS analysis; type: ADME, organism-based, Canis lupus familiaris; parameters: dose 1.5 mg/kg, route oral, time infinity; conditions: in vivo
[18] = Apparent clearance in male Beagle dog at 1.5 mg/kg, po by LC-MS/MS analysis; type: ADME, organism-based, Canis lupus familiaris; conditions: in vivo, read-out: CL(app) (converted)
[19] = Apparent volume of distribution in male Beagle dog at 1.5 mg/kg, po by LC-MS/MS analysis; type: ADME, organism-based, Canis lupus familiaris; conditions: in vivo
[20] = Half life in male Beagle dog at 4.5 mg/kg, po by LC-MS/MS analysis; type: ADME, organism-based, Canis lupus familiaris; conditions: in vivo
[21] = Tmax in male Beagle dog at 4.5 mg/kg, po by LC-MS/MS analysis; type: ADME, organism-based, Canis lupus familiaris; conditions: in vivo
[22] = Cmax in male Beagle dog at 4.5 mg/kg, po by LC-MS/MS analysis; type: ADME, organism-based, Canis lupus familiaris; parameters: dose 4.5 mg/kg, route oral; conditions: in vivo
[23] = AUC (0 to infinity) in male Beagle dog at 4.5 mg/kg, po by LC-MS/MS analysis; type: ADME, organism-based, Canis lupus familiaris; parameters: dose 4.5 mg/kg, route oral, time infinity; conditions: in vivo
[24] = Apparent clearance in male Beagle dog at 4.5 mg/kg, po by LC-MS/MS analysis; type: ADME, organism-based, Canis lupus familiaris; conditions: in vivo, read-out: CL(app) (converted)
[25] = Apparent volume of distribution in male Beagle dog at 4.5 mg/kg, po by LC-MS/MS analysis; type: ADME, organism-based, Canis lupus familiaris; conditions: in vivo
[26] = Half life in female Beagle dog at 0.5 mg/kg, po by LC-MS/MS analysis; type: ADME, organism-based, Canis lupus familiaris; conditions: in vivo
[27] = Tmax in female Beagle dog at 0.5 mg/kg, po by LC-MS/MS analysis; type: ADME, organism-based, Canis lupus familiaris; conditions: in vivo
[28] = Cmax in female Beagle dog at 0.5 mg/kg, po by LC-MS/MS analysis; type: ADME, organism-based, Canis lupus familiaris; parameters: dose 0.5 mg/kg, route oral; conditions: in vivo
[29] = AUC (0 to infinity) in female Beagle dog at 0.5 mg/kg, po by LC-MS/MS analysis; type: ADME, organism-based, Canis lupus familiaris; parameters: dose 0.5 mg/kg, route oral, time infinity; conditions: in vivo
[30] = Apparent clearance in female Beagle dog at 0.5 mg/kg, po by LC-MS/MS analysis; type: ADME, organism-based, Canis lupus familiaris; conditions: in vivo, read-out: CL(app) (converted)
[31] = Apparent volume of distribution in female Beagle dog at 0.5 mg/kg, po; type: ADME, organism-based, Canis lupus familiaris; conditions: in vivo
[32] = test system: Heart; test: Cardioprotective activity in Langendorff perfused Sprague-Dawley rat heart assessed as increase in coronary artery blood flow; type: functional, tissue-based

SMILES: CCOC(=O)N(C)c1c(N)nc(-c2nn(Cc3cncc(C)c3)c3ncccc23)nc1N
- Activity [1]: 47.4%

SMILES: CC(C)OC(=O)N(C)c1c(N)nc(-c2nn(Cc3ccc(F)s3)c3ncccc23)nc1N
- Activity [1]: 38.1%

SMILES: CCOC(=O)N(CC)c1c(N)nc(-c2nn(Cc3ccc(F)s3)c3ncccc23)nc1N
- Activity [1]: 48.4%

SMILES: COC(=O)N(C)c1c(N)nc(-c2nn(Cc3ccccc3F)c3ncccc23)nc1N [RIOCIGUAT]
- EC50 [2]: 300 nM
- Activity [1]: 88.9%
- EC50 [3]: 270 nM

SMILES: CCOC(=O)N(C)c1c(N)nc(-c2nn(Cc3sccc3F)c3ncccc23)nc1N
- EC50 [2]: 380 nM
- Activity [1]: 86.6%

SMILES: COC(=O)Nc1c(N)nc(-c2nn(Cc3cccnc3F)c3ncccc23)nc1N
- Activity [1]: 11.8%

SMILES: COC(=O)Nc1c(N)nc(-c2nn(Cc3sccc3F)c3ncccc23)nc1N
- Activity [1]: 14.3%

SMILES: CC(C)OC(=O)Nc1c(N)nc(-c2nn(Cc3cccnc3F)c3ncccc23)nc1N
- Activity [1]: 12.5%

SMILES: CCN(C(=O)OC(C)C)c1c(N)nc(-c2nn(Cc3sccc3F)c3ncccc23)nc1N
- EC50 [2]: 870 nM
- Activity [1]: 76.2%

SMILES: CC(C)OC(=O)Nc1c(N)nc(-c2nn(Cc3sccc3F)c3ncccc23)nc1N
- Activity [1]: 42.3%

SMILES: COC(=O)N(C)c1c(N)nc(-c2nn(Cc3cncc(C)c3)c3ncccc23)nc1N
- Activity [1]: 31%

SMILES: COC(=O)N(C)c1c(N)nc(-c2nn(Cc3cccs3)c3ncccc23)nc1N
- Activity [1]: 45.1%

SMILES: CCOC(=O)N(CC)c1c(N)nc(-c2nn(Cc3cncc(C)c3)c3ncccc23)nc1N
- Activity [1]: 3%

SMILES: CCN(C(=O)OC)c1c(N)nc(-c2nn(Cc3ccc(F)s3)c3ncccc23)nc1N
- Activity [1]: 51.9%

SMILES: CCN(C(=O)OC)c1c(N)nc(-c2nn(Cc3cncc(C)c3)c3ncccc23)nc1N
- Activity [1]: 2.8%

SMILES: CCN(C(=O)OC(C)C)c1c(N)nc(-c2nn(Cc3cncc(C)c3)c3ncccc23)nc1N
- Activity [1]: 0%

SMILES: CCN(C(=O)OC(C)C)c1c(N)nc(-c2nn(Cc3ccc(F)s3)c3ncccc23)nc1N
- Activity [1]: 41%

SMILES: COC(=O)N(C)c1c(N)nc(-c2nn(Cc3sccc3F)c3ncccc23)nc1N
- EC50 [2]: 110 nM
- Activity [1]: 87%
- Activity [3]: Dose-dependent effect
- EC50 [3]: 86 nM
- Emax [4]: 60%
- Activity [5]: Active
- Ratio EC50 [6]: 3
- half-life [7]: 2.04 h
- Tmax [8]: 0.6 h
- Cmax [9]: 83.8 ng/mL
- AUC(0-inf) [10]: 213 ng·h/mL
- CL/F [11]: 41 mL/min/kg
- Vz [12]: 7.9 L/kg
- bioavailability [13]: 80%
- half-life [14]: 3.24 h
- Tmax [15]: 0.75 h
- Cmax [16]: 106 ng/mL
- AUC(0-inf) [17]: 373 ng·h/mL
- CL/F [18]: 96 mL/min/kg
- Vz [19]: 43.47 L/kg
- half-life [20]: 3.77 h
- Tmax [21]: 1.55 h
- Cmax [22]: 175 ng/mL
- AUC(0-inf) [23]: 874 ng·h/mL
- CL/F [24]: 103 mL/min/kg
- Vz [25]: 41.14 L/kg
- half-life [26]: 1.75 h
- Tmax [27]: 1.25 h
- Cmax [28]: 72.4 ng/mL
- AUC(0-inf) [29]: 198 ng·h/mL
- CL/F [30]: 42.3 mL/min/kg
- Vz [31]: 6.38 L/kg
- Activity [32]: Active

SMILES: CCOC(=O)N(CC)c1c(N)nc(-c2nn(Cc3sccc3F)c3ncccc23)nc1N
- EC50 [2]: 240 nM
- Activity [1]: 85.6%

SMILES: COC(=O)Nc1c(N)nc(-c2nn(Cc3ccc(F)s3)c3ncccc23)nc1N
- Activity [1]: 30%

SMILES: CC(C)OC(=O)Nc1c(N)nc(-c2nn(Cc3ccc(F)s3)c3ncccc23)nc1N
- Activity [1]: 17.1%

SMILES: CCOC(=O)N(C)c1c(N)nc(-c2nn(Cc3ccc(F)s3)c3ncccc23)nc1N
- Activity [1]: 38.4%

SMILES: CCN(C(=O)OC)c1c(N)nc(-c2nn(Cc3sccc3F)c3ncccc23)nc1N
- EC50 [2]: 210 nM
- Activity [1]: 85.4%
- Activity [3]: Dose-dependent effect
- EC50 [3]: 180 nM
- Emax [4]: 60%
- Activity [5]: Active
- Activity [32]: Active

SMILES: CC(C)OC(=O)N(C)c1c(N)nc(-c2nn(Cc3cccnc3F)c3ncccc23)nc1N
- Activity [1]: 1.9%

SMILES: COC(=O)N(C)c1c(N)nc(-c2nn(Cc3ccc(F)s3)c3ncccc23)nc1N
- Activity [1]: 39.2%

SMILES: COC(=O)N(C)c1c(N)nc(-c2nn(Cc3cccnc3F)c3ncccc23)nc1N
- Activity [1]: 21.1%

SMILES: CC(C)OC(=O)N(C)c1c(N)nc(-c2nn(Cc3sccc3F)c3ncccc23)nc1N
- EC50 [2]: 180 nM
- Activity [1]: 75.1%
- Activity [3]: Dose-dependent effect
- EC50 [3]: 110 nM
- Emax [4]: 60%
- Activity [5]: Active
- Activity [32]: Active

SMILES: CCN(C(=O)OC(C)C)c1c(N)nc(-c2nn(Cc3cccnc3F)c3ncccc23)nc1N
- Activity [1]: 9%

SMILES: Cc1cncc(Cn2nc(-c3nc(N)c(N(C)C(=O)OC(C)C)c(N)n3)c3cccnc32)c1
- Activity [1]: 32.4%

SMILES: CCOC(=O)Nc1c(N)nc(-c2nn(Cc3sccc3F)c3ncccc23)nc1N
- Activity [1]: 27.3%

SMILES: CCOC(=O)Nc1c(N)nc(-c2nn(Cc3ccc(F)s3)c3ncccc23)nc1N
- Activity [1]: 57.4%
